# Test results from patent US20110288086A1, “POLYCYCLIC QUINAZOLINES, PREPARATION THEREOF, AND USE THEREOF” (priority 2010, published 2011).
# Columns and labels:
# [1] = system: Colo320 human rectal cancer cells; assay: Tumor cell inhibition ratio, CCK-8 kit, Colo320; conditions: COLO 320, read-out: Antiproliferative effect (inhibition ratio) Colo320
# Excerpt: (§1) The inhibitory activities of the compounds on tumor cells in vitro
# [2] = system: A549 human lung cancer cells; assay: Tumor cell inhibition ratio, CCK-8 kit, A549; conditions: A549, read-out: Antiproliferative effect (inhibition ratio) A549
# Excerpt: as §1
# [3] = system: MDA-MB-435s human breast carcinoma cells; assay: Tumor cell inhibition ratio, CCK-8 kit, MDA-MB-435s; conditions: read-out: Antiproliferative effect (inhibition ratio) 435s
# Excerpt: as §1
# [4] = system: Hep3B2.1-7 human hepatoma carcinoma cells; assay: Tumor cell inhibition ratio, CCK-8 kit, Hep3B; conditions: read-out: Antiproliferative effect (inhibition ratio) Hep3B
# Excerpt: as §1
# [5] = system: Hut78 T-Lymphocytic Leukemia cells; assay: Tumor cell inhibition ratio, CCK-8 kit, Hut78; conditions: Homo sapiens, HuT78, read-out: Antiproliferative effect (inhibition ratio) Hut-78
# Excerpt: as §1
# [6] = system: K562 human chronicity marrow leukemic cells; assay: Tumor cell inhibition ratio, CCK-8 kit, K562; conditions: K562, read-out: Antiproliferative effect (inhibition ratio) K562
# Excerpt: as §1
# [7] = system: Jurkat E6-1 human T-cell lymphoma; assay: Tumor cell inhibition ratio, CCK-8 kit, Jurkat E6-1; conditions: Jurkat E6.1, read-out: Antiproliferative effect (inhibition ratio) E6-1
# Excerpt: as §1
# [8] = system: PC-3 human carcinoma of prostate; assay: Tumor cell inhibition ratio, CCK-8 kit, PC-3; conditions: read-out: Antiproliferative effect (inhibition ratio) PC-3
# Excerpt: as §1
# [9] = system: PANC-1 human pancreatic cancer cells; assay: Tumor cell inhibition ratio, CCK-8 kit, PANC-1; conditions: PANC-1, read-out: Antiproliferative effect (inhibition ratio) PANC-1
# Excerpt: as §1
# [10] = target: T1, aurora kinase B (Homo sapiens, UniProt Q96GD4); assay: Aurora kinase B inhibition in vitro (Invitrogen aurora kinase screening kit PV3174); type: biochemical
# T1 construct: purchased Invitrogen PV3174
# T1 sequence (Q96GD4 whole entry): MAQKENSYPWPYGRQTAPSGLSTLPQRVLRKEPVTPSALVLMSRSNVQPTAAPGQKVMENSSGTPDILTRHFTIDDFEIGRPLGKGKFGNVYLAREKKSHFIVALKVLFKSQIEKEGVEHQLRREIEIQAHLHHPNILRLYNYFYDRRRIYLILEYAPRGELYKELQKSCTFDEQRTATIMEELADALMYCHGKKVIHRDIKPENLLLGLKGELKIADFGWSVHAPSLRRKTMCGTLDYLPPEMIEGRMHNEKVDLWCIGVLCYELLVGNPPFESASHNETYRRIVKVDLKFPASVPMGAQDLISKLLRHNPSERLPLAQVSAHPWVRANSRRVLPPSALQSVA
# [11] = target: EGFR tyrosine kinase (Homo sapiens, UniProt P00533); assay: EGFR tyrosine kinase inhibition in vitro (Invitrogen EGFR inhibitor screening kit PV3193)
# Chain of EGFR tyrosine kinase (P00533 25-1210): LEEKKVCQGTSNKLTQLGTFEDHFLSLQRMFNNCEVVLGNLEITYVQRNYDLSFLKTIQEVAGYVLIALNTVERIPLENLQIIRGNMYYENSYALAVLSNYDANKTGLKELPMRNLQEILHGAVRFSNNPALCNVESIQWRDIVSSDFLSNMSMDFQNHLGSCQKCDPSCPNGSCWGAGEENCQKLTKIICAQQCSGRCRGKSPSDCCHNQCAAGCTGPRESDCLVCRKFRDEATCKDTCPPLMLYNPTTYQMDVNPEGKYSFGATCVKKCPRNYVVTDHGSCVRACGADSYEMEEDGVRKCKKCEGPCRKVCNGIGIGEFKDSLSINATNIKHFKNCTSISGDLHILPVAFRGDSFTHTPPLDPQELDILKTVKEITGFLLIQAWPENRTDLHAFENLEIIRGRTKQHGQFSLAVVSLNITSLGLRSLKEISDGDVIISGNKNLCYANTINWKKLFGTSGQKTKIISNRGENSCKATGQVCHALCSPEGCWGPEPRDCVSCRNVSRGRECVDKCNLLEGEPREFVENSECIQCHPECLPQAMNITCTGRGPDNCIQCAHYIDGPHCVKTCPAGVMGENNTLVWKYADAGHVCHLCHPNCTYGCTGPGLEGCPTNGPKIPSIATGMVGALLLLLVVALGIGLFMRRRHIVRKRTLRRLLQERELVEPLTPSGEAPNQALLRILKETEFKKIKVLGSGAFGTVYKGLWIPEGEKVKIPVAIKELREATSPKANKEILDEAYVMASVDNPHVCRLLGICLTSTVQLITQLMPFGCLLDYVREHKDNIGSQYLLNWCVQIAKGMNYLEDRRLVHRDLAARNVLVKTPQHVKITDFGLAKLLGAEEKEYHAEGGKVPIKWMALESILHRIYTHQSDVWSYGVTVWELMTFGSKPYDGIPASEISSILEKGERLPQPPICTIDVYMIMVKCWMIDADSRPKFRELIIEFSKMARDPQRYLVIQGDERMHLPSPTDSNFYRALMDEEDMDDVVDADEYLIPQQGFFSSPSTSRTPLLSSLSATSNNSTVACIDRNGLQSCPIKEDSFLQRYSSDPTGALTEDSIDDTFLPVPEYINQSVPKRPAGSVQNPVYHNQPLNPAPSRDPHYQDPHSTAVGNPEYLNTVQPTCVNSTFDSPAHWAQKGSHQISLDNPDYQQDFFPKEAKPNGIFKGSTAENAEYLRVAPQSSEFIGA
# Excerpt: The inhibitory activities of EGFR tyrosine kinase in vitro
# Erlotinib hydrochloride was used as a positive control drug.
SMILES,inhibition at 10 µM [1],inhibition at 100 µM [1],inhibition at 10 µM [2],inhibition at 100 µM [2],inhibition at 10 µM [3],inhibition at 100 µM [3],inhibition at 10 µM [4],inhibition at 100 µM [4],inhibition at 10 µM [5],inhibition at 100 µM [5],inhibition at 10 µM [6],inhibition at 100 µM [6],inhibition at 10 µM [7],inhibition at 100 µM [7],inhibition at 10 µM [8],inhibition at 100 µM [8],The inhibition ratio of the compound on Aurora B(%) ([10]; 40 μM),The inhibition ratio of the compound on Aurora B(%) ([10]; 200 μM),The inhibition ratio of the compound on EGFR(%) ([11]; 40 μM),The inhibition ratio of the compound on EGFR(%) ([11]; 200 μM),also measured
"COc1cc2c(cc1OCCCN1CCNCC1)C1=Nc3cccc(F)c3CN1C=N2 [Compound V-25, 9-fluoro-3-methoxy-2-(3-(piperazinyl-1-yl)propoxy)-8H-quinazolino[4,3-b]quinazoline]",33.5%,79.2%,47%,79.3%,20.4%,77%,21.3%,64.7%,19%,21.9%,44.1%,82.8%,31.1%,81.3%,53.4%,64.4%,–,–,–,–,inhibition at 10 µM [9]: 44.2%; inhibition at 100 µM [9]: 88.6%
"C#Cc1cccc2c1CN1C=Nc3cc(OCCOC)c(OCCOC)cc3C1=N2.Cl [Compound V-4, 9-ethynyl-2,3-bis(2-methoxyethoxy)-8H-quinazolino[4,3-b]quinazoline hydrochloride trihydrate]",48.9%,83.4%,48.6%,78.7%,31.3%,92.6%,33.5%,79%,44.1%,85%,31.4%,87.6%,6.85%,19.8%,22.2%,62.7%,38.7%,91.5%,48.7%,93.2%,inhibition at 10 µM [9]: 39.7%; inhibition at 100 µM [9]: 85.9%
"Cc1cc(Nc2cc(N3CCN(C)CC3)nc(Sc3ccc(NC(=O)C4CC4)cc3)n2)n[nH]1 [VX-680, reference compound]",–,–,–,–,–,–,–,–,–,–,–,–,–,–,–,–,35.2%,81.6%,–,–,–
"COCCOc1cc2c(cc1OCCOC)C1=Nc3cccc(C#N)c3CN1C=N2 [Compound V-7, 9-cyano-2,3-bis(2-methoxyethoxy)-8H-quinazolino[4,3-b]quinazoline]",42.1%,81.4%,27.7%,83.6%,38%,81.4%,40.4%,89.5%,32.1%,62.4%,24.3%,61.7%,34.6%,75.4%,15.9%,90.3%,23.2%,91.7%,36.2%,80.5%,inhibition at 10 µM [9]: 40.7%; inhibition at 100 µM [9]: 86.6%
"COCCOc1cc2c(cc1OCCOC)C1=Nc3cccc(NC(=O)c4ccccc4)c3CN1C=N2 [Compound V-12, N-{2,3-bis(2-methoxyethoxy)-8H-quinazolino[4,3-b]quinazoline}benzamide]",–,–,–,–,–,–,–,–,–,–,–,–,–,–,–,–,40.1%,87.9%,25.8%,62.7%,–
"CS(=O)(=O)CCNCc1ccc(-c2ccc3c(c2)C2=Nc4ccc(F)c(Cl)c4CN2C=N3)o1 [Compound V-34, N-((5-(9-chloro-10-fluoro-8H-quinazolino[4,3-b]quinazoline-2-yl)furan-2-yl)methyl)-2-(methylsulfonyl)ethylamine]",–,–,–,–,–,–,–,–,–,–,–,–,–,–,–,–,17.8%,92.6%,21.6%,72.6%,–
"C#Cc1cccc2c1CN1C=Nc3cc(OC)c(OCCCN4CCOCC4)cc3C1=N2 [Compound V-26, 4-(3-((9-ethynyl-3-methoxy-8H-quinazolino[4,3-b]quinazoline-2-yl)oxy)propyl)morpholine]",32.1%,81.4%,27.7%,93.6%,38%,71.4%,28.4%,89.5%,32.1%,72.4%,4.29%,11.7%,44.6%,85.4%,5.86%,30.3%,–,–,–,–,inhibition at 10 µM [9]: 40.7%; inhibition at 100 µM [9]: 76.6%
"COCCOc1cc2c(cc1OCCOC)C1=Nc3cc(CO)cc(N)c3CN1C=N2 [Compound V-21, 9-amino-11-hydroxymethyl-2,3-bis(2-methoxyethoxy)-8H-quinazolino[4,3-b]quinazoline]",31.8%,87%,45.3%,78%,67%,74.9%,21.8%,86.3%,10.3%,52.7%,26.9%,81.6%,43.5%,90.3%,27.6%,62.6%,–,–,–,–,inhibition at 10 µM [9]: 52.7%; inhibition at 100 µM [9]: 89.4%
"C#Cc1cccc2c1CN1C=Nc3ccc(-c4ccc(CNCCS(C)(=O)=O)o4)cc3C1=N2 [Compound V-35, N-((5-(9-ethynyl-8H-quinazolino[4,3-b]quinazoline-2-yl)furan-2-yl)methyl)-2-(methylsulfonyl)ethylamine]",–,–,–,–,–,–,–,–,–,–,–,–,–,–,–,–,3.3%,79.8%,13.3%,75.8%,–
COc1cc2c(cc1OCCCN1CCOCC1)C1=Nc3cc(COS(C)(=O)=O)cc([N+](=O)[O-])c3CN1C=N2 [Compound V-29],–,–,–,–,–,–,–,–,–,–,–,–,–,–,–,–,11.2%,78.9%,35.2%,86.5%,–
"COc1cc2c(cc1OC)C1=Nc3ccc(F)c(Cl)c3CN1C=N2 [Compound V-30, 9-chloro-10-fluoro-2,3-dimethoxy-8H-quinazolino[4,3-b]quinazoline]",–,–,–,–,–,–,–,–,–,–,–,–,–,–,–,–,46.3%,79.6%,27.8%,82.1%,–
"CS(=O)(=O)CCNCc1ccc(-c2ccc3c(c2)C2=Nc4cc(Cl)ccc4CN2C=N3)o1 [Compound V-36, N-((5-(11-chloro-8H-quinazolino[4,3-b]quinazoline-2-yl)furan-2-yl)methyl)-2-(methylsulfonyl)ethylamine]",–,–,–,–,–,–,–,–,–,–,–,–,–,–,–,–,52.6%,97.9%,55.6%,87.9%,–
"COc1cc2c(cc1OCCCN1CCOCC1)C1=Nc3ccc(F)c(Cl)c3CN1C=N2 [Compound V-23, 4-(3-((9-chloro-10-fluoro-3-methoxy-8H-quinazolino[4,3-b]quinazoline-2-yl)oxy)propyl)morpholine di-p-toluenesulfonate]",52.3%,99.5%,10.4%,22.5%,20.7%,52.2%,27.1%,48.7%,42%,99.8%,58.7%,73.4%,56.3%,77.5%,30.7%,97.6%,–,–,–,–,inhibition at 10 µM [9]: 21.5%; inhibition at 100 µM [9]: 98.8%
"COc1cc2c(cc1OCCCN1CCOCC1)C1=Nc3cccc(C#N)c3CN1C=N2 [Compound V-27, 3-methoxy-2-(3-morpholinylpropoxy)-8H-quinazolino[4,3-b]quinazoline-9-nitrile]",34.5%,84.8%,39.8%,80%,12%,79.7%,2.44%,67.3%,65.6%,95.9%,22.4%,62.2%,24%,75.4%,25.2%,84%,–,–,–,–,inhibition at 10 µM [9]: 41.8%; inhibition at 100 µM [9]: 99.8%
